What was measured:
[1] = tested on: R848-induced signaling pathway in human peripheral blood mononuclear cells; experiment: ELISA of TNF-α in R848-treated human peripheral blood mononuclear cells; type: cell-based; details: human peripheral blood mononuclear cells (FIG. 8)
Method: (§1) After 48 hours, suspending cells would adhere onto the surface of the 12-well plate, non-adhered cells and the medium were aspirated, and cells were washed with sterile […] buffer (3×1 mL). RPMI medium was added (1 mL/well), and R848 (1 μg/mL) and various concentrations of Compound 24 or Compound 10 (as a negative control) were further added to treat cells. Or, the same amount of peripheral blood mononuclear cells derived from healthy human were used instead of THP-1 cells for subsequent experiments.
(§2) After 24 hours, the supernatant of the medium was collected and stored in a freezer at −80° C. Cells were washed with PBS (3×1 mL), the 12-well plate was placed on ice, and then 400 μL of lysis buffer (containing protease inhibitor) was added to each well, during which the cells were pipetted every five minutes. After 20 minutes, the mixture was transferred to the corresponding 1.5-mL tube and centrifuged at 13.2K rpm and 4° C. for 20 minutes. 350 μL of the supernatant was collected into a new centrifuge tube and frozen at −80° C.
(§3) Cytokines interleukin-1β(IL-1β), interleukin-6 (IL-6) and tumor necrosis factor (TNF-α) were quantified by enzyme-linked immunosorbent assay (ELISA) according to the instructions of the kit provided by the manufacturer.

[2] = tested on: R848-induced signaling pathway in THP-1 cells; experiment: ELISA of inflammatory factors in R848-treated THP-1 cells; type: cell-based, human
Method: THP-1 cells treated with 50 ng/mL of PMA were suspended in RPMI medium (containing 10% fetal bovine serum, penicillin (100 U/mL), streptomycin ([…]) and 0.05 mM 2-mercaptoethanol), seeded in a 12-well plate at a density of 1×10^6 cells/well and 1 mL/well, and incubated in a cell incubator (37° C., 5% CO2).
as §1, §2, §3

[3] = molecular target: T1, TLR8 (Homo sapiens, UniProt Q9NR97); experiment: ssRNA40-induced signaling in HEK-Blue hTLR8 cell line; type: cell-based; details: at a concentration of 100 μM (FIG. 12)
T1 construct: host or cells: HEK-Blue hTLR8 (HEK293-derived SEAP reporter cells)
T1 sequence (Q9NR97 27-1041): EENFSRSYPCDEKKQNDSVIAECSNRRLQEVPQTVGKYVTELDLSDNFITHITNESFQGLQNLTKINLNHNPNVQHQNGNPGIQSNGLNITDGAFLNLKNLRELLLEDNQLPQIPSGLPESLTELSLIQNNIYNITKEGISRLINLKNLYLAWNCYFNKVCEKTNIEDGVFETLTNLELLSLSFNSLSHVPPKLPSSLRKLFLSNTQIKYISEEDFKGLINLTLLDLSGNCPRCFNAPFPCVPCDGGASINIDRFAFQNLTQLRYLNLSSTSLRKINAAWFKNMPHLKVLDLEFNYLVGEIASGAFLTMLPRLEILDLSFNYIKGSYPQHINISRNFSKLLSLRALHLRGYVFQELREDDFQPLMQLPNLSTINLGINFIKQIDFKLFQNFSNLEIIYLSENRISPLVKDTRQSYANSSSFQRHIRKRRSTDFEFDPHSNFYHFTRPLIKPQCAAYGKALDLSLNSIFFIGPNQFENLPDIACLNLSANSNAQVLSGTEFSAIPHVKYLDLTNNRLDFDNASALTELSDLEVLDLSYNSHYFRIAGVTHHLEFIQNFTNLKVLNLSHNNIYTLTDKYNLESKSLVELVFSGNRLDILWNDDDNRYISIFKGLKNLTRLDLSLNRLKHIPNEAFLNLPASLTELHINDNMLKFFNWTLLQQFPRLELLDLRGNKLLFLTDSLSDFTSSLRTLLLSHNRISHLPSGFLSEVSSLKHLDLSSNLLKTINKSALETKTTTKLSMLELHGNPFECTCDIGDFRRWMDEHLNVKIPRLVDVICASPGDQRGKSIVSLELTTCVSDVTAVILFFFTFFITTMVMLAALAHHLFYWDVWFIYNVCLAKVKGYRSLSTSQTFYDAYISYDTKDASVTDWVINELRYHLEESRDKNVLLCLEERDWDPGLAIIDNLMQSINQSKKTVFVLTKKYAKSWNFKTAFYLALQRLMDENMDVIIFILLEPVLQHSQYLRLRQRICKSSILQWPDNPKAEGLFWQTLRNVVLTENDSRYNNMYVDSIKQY
Method: HEK Blue hTLR8 cells or HEK Blue hTLR7 cells were cultured in DMEM medium supplemented with 10% fetal bovine serum, penicillin (100 U/mL) and streptomycin ([…]). Thereafter, cells were seeded in 96-well plate (45,000 cells per well), and were cultured for 24 hours in a humidified incubator (37° C., 5% CO2).
After 24 hours, the supernatant and suspending cells were aspirated and replaced with fresh serum-free DMEM. Cells were treated with 1 μg/mL of R848 (agonist of TLR7/8) or 5 μg/mL of ssRNA40/LyoVec or 5 μg/mL of ORN06/LyoVec (InvivoGen) and compounds with specified concentrations, and were placed in a humidified incubator (37° C., 5% CO2) for co-culture.
After 24 hours, 50 μL of the medium was aspirated from each well and then added to a new 96-well plate, followed by the addition of 50 μL of Quanti-Blue in each well and the incubation at 37° C. in darkness. Changes in color would occur in the […] within 60 minutes, and the absorbance was measured at 620 nm by using the multi-mode plate reader Vrioskan Flash. Inhibition rate (%)=[R848 (OD620)−Compound (OD620)]/[R848 (OD620)−Control (OD620)]×100%. Among these, the control group was only added with the same amount of cells. Finally, the software Prism 6.0 was utilized to plot a graph and calculate IC50 values. […]

synergistic activating effect on ssRNA40-induced signaling [3]	SMILES	inhibitory effect on inflammatory factor TNF-α [1]	inhibitory effect on inflammatory factor TNF-α ([2]; concentration-dependent (FIG. 5))	inhibitory effect on inflammatory factor IL-6 ([2]; concentration-dependent (FIG. 6))	inhibitory effect on inflammatory factor IL-1β ([2]; concentration-dependent (FIG. 7))
	CSc1nnc(CCCO)n1-c1cc(C)c(C)c(C)c1 [Compound 24, 3-(5-(methylthio)-4-(3,4,5-trimethylphenyl)-4H-1,2,4-triazole-3-yl)propan-1-ol]	significant inhibitory effect	significant inhibitory effect	significant inhibitory effect	significant inhibitory effect
synergistic activating effect	CCOCc1nc(I)c(-c2ccccc2)n1CC(C)(C)O [Compound 53, 1-[2-(ethoxymethyl)-4-iodo-5-phenyl-1H-imidazole-1-yl]-2-methylpropan-2-ol]				

Source: US20230002327A1, “SMALL-MOLECULE REGULATOR OF TLR8” (TSINGHUA UNIVERSITY, priority 2019, published 2023)
